Assay results: US7252953B2, “Method of detecting and preventing Alzheimer's disease, particularly at prodromal and early stages” (United States of America Department of Veterans Affairs, priority 2002, dated 2007)

Columns and labels:
TNF-α [1] = experiment: TNF-α release in N9 clonal murine microglial cells; format: cell-based; settings: for TNF-α release induced by the activator alone: single dose
Description: (§1) Primary microglial cultures were prepared from neonatal mouse (C57BL6) brains as previously described (Reference 29) and maintained in Delbecco's modified Eagle's medium with F-12 nutrient mixture (DMEM/F12) containing 10% fetal bovine sera (FBS) and antibiotics. N9 clonal murine microglial cell cultures were maintained in Iscoves modified Delbecco's medium (IMDM) containing 5% heat-inactivated FBS, 2 mM L-glutamine, 50 μM 2-mercaptoethanol and antibiotics. Treatment of both primary and N9 microglial cells were performed under serum-free conditions. Freshly solublized Aβ (BioSource, Camarillo, Calif.) peptides were prepared and characterized as previously described (References 30 and 44) and were used in all in vitro experiments. Unless specified, cells were always pretreated with sAβ for 5 min and then followed by challenge with α-thrombin (100 nM or as indicated), glutamate (2 mM) or LPS (5 ng/ml).
(§2) TNF-α production in microglial culture media was measured and standardized as previously described (Reference 29).
(§3) Given our results that sAβ disrupts GRK function and inhibits GPCR desensitization in microglia, we next investigated whether such signaling dysregulation might lead to cellular functional changes in microglia. Both primary and N9 clonal murine microglial cultures were used and TNF-α secretion in culture media was measured as an outcome. […] Moreover, the potentiation effect of sAβ on thrombin and glutamate-induced microglial activation was dose-dependent, with a minimal effective concentration (ECmin) of 20 nM and a maximal EC (ECmax) of 500 nM. Furthermore, the enhancement effect was not observed if sAβ was given after (10 min) thrombin or glutamate treatments. […] Together with the evidence that sAβ inhibits GRK-GPCR interactions and causes prolongation of GPCR signaling, we conclude that sAβ, by disrupting GRK function, alters microglial reactivity to specific GPCR activators.
FIG. 6A, pretreatment with sAβ1-42 potentiated (p<0.01) TNF-α release induced by increasing doses of thrombin (Thr) as indicated from primary mouse brain microglial cultures. n=4. […] The ECmin and ECmax for sAβ's potentiation are approximately 20 nM and 500 nM, respectively. n=6.

GRK5 = GRK5 subcellular distribution in sAβ-treated microglial cells (immunocytochemistry, semi-quantified); format: cell-based, murine; settings: ICC; for translocation of GRK5 from cell membrane to cytosol: 5 min, primary murine microglial cells, serum-free medium
Description: (§4) Primary microglial cultures were prepared from neonatal mouse (C57BL6) brains as previously described (Reference 29) and maintained in Delbecco's modified Eagle's medium with F-12 nutrient mixture (DMEM/F12) containing 10% fetal bovine sera (FBS) and antibiotics. N9 clonal murine microglial cell cultures were maintained in Iscoves modified Delbecco's medium (IMDM) containing 5% heat-inactivated FBS, 2 mM L-glutamine, 50 μM 2-mercaptoethanol and antibiotics. Treatment of both primary and N9 microglial cells were performed under serum-free conditions.
Microglial cells were seeded onto poly-L-lysine-coated 8-chamber slides at a density of 1×10^4/well. After various treatments, cells were immediately fixed with pre-chilled (4° C.) 5% acetic acid in methanol for 45 min at 4° C., followed by washing with PBS. The fixed cells were blocked and double-stained with phalloidin-FITC (1:1,000) and anti-GRK5 (1:500) or GRK2 (1:500). Secondary antibody-Cy3 conjugates (1:500) staining, washing, mounting and confocal microscopic visualization were performed routinely as previously described (Reference 29).
Briefly, the selected cell image corresponding to GRK staining, was copied, enlarged, inverted and rotated to an appropriate position for quantification with NIH Image. […] FIGS. 3E and F show the examples of profiles for the solid-line indicated levels in FIGS. 3C and D, respectively. The dark and light grey areas in FIGS. 3E and F represent membrane and Cyto, respectively. The sum of areas for membrane and Cyto from all slices in each cell represents GRK subcellular distribution in this particular cell. For each treatment, 20 randomly selected cells were quantified and the average data were shown.
Microglial-mediated inflammation is an important pathological component of AD (Reference 28). […] Thrombin, a serine protease is known to activate protease-activated GPCRs, (PARs) such as PAR1 (Reference 29) and PAR4 in microglia.
N9 microglial cells were treated with sAβ1-42 (500 nM) for 5 minutes. […] The detailed methods for semi-quantification of GRK subcellular distribution are described in Methods section (above).

[Ca^2+]i = Ca2+ imaging (Fluo-4) in microglial cells; format: cell-based, murine
Description: as §1
We measured [Ca^2+]i in microglial cells using Fluo-4 (2 μM) with the aid of a Nikon BioRadiance triple laser scanning confocal microscope. Image collection, quantification and data analysis were performed as previously described (Reference 29).
(§5) In previous studies, we found thrombin signaling via PARs in microglial cells involving [Ca^2+]i increase and transient activation of both p38 and p44/42 mitogen-activated protein kinases (MAPKs) (Reference 29). To understand potential consequences of GRK dysfunction induced by sAβ, for these studies we also assessed changes in thrombin signaling in sAβ-pretreated microglial cells.
(§6) FIG. 5A, N9 microglial cells were pre-treated with 500 nM sAβ1-42 (arrow “1”) followed by 100 nM thrombin treatment (arrow “2”). Changes in [Ca^2+]i were measured as previously described (Reference 29) from three separate experiments. […] For both FIGS. 5B and 5C, lane M=Marker, 1=Control (0 min), 2=Control (25 min), 3=Aβ1-42 (25 min), 4=Thrombin (20 min), 5=Aβ1-42+thrombin (20 min post-Aβ), 6=Control (24 h), 7=Aβ1-42 (24 h), 8=Thrombin (24 h) and 9=Aβ1-42+thrombin (24 h post-Aβ). “P” and “T” indicate phosphorylated and total p38 or p44/42 MAPKs, respectively.

TNF-α [2] = experiment: TNF-α release in primary mouse brain microglial cultures; format: cell-based; settings: 5 min pretreatment, FIG. 6A
Description: as §1, §2, §3
FIG. 6A, pretreatment with sAβ1-42 potentiated (p<0.01) TNF-α release induced by increasing doses of thrombin (Thr) as indicated from primary mouse brain microglial cultures. n=4. […]

PAR4-GRK5 = experiment: GRK-PAR binding in microglial cells by IP and WB: PAR4-GRK5; format: cell-based, murine; settings: thrombin 100 nM alone, 30 seconds, compared to untreated microglial cells
Description: as §4, with “conditions. Freshly solublized Aβ (BioSource, Camarillo, Calif.) peptides were prepared and characterized as previously described (References 30 and 44) and were used in all in vitro experiments. […]” for “conditions.”
(§7) Cultured cells were lysed in pre-chilled 2×IP buffer I (Tris, 20 mM, pH 7.4; NaCl, 300 mM; EDTA, 2 mM; 2 mM EGTA, pH 8.0; 0.4 mM sodium ortho-vanadate, 2% Triton X-100; 1% NP-40; 0.4 mM PMSF) supplemented both with phosphatase and protease inhibitor cocktails. After centrifugation, the supernatants were collected and total protein concentrations were determined by the bicinchoninic acid assay (BCA). […] Both antibodies to GRK2 and GRK5 (Santa Cruz) were diluted 1:500 for WB, other routine procedures, WB for total and phospho-p44/42 MAPK, and semi-quantitative analysis of protein band density were performed as previously described (Reference 29). […]

p44/42 MAPK = p44/42 MAPK phosphorylation in microglial cells (WB); format: cell-based, murine; settings: substance alone
Description: as §1
(§8) Cultured cells were lysed in pre-chilled 2×IP buffer I (Tris, 20 mM, pH 7.4; NaCl, 300 mM; EDTA, 2 mM; 2 mM EGTA, pH 8.0; 0.4 mM sodium ortho-vanadate, 2% Triton X-100; 1% NP-40; 0.4 mM PMSF) supplemented both with phosphatase and protease inhibitor cocktails. After centrifugation, the supernatants were collected and total protein concentrations were determined by the bicinchoninic acid assay (BCA). Equal amounts (250 μg) of cell lysates from each group were mixed with 20 μl (˜5 μg) of either PAR1 or PAR4 antibodies, and brought to a total volume of 1 ml in 1×IP buffer. Following a 1 hour incubation at 4° C., appropriate secondary antibody-agarose conjugates were added followed by incubation (30 min with agitation), centrifugation and sufficient washes. The pellets were resuspended in 30 μl of electrophoresis sample buffer and boiled for 5 min. The supernatants were directly used for polyacrylamide sodium dodecyl sulfate gel electrophoresis (SDS-PAGE) and WB analysis. To prepare subcellular fractions of brain samples, we homogenized fresh or fresh-frozen tissues in Tris buffered saline solution (Tris, 10 mM, pH 7.4; NaCl, 150 mM; EDTA, 1 mM; 1 mM EGTA, pH 8.0; 0.2 mM sodium ortho-vanadate) supplemented with protease inhibitor cocktails. After centrifugation (12,000 g at 4° C. for 15 min), the supernatants were collected as cytosolic fractions. The pellets were resuspended in 1×IP buffer containing protease inhibitor cocktail. Following brief sonication and centrifugation (12,000 g at 4° C. for 15 min), the supernatants were collected as membrane fractions. Both antibodies to GRK2 and GRK5 (Santa Cruz) were diluted 1:500 for WB, other routine procedures, WB for total and phospho-p44/42 MAPK, and semi-quantitative analysis of protein band density were performed as previously described (Reference 29).
as §5, §6

p38 MAPK = p38 MAPK phosphorylation in microglial cells (WB); format: cell-based, murine; settings: substance alone
Description: as §1, §8, §5, §6

PAR4-GRK2 = experiment: GRK-PAR binding in microglial cells by IP and WB: PAR4-GRK2; format: cell-based, murine; settings: thrombin 100 nM alone, 30 seconds, compared to untreated microglial cells
Description: as §4, with “conditions. Freshly solublized Aβ (BioSource, Camarillo, Calif.) peptides were prepared and characterized as previously described (References 30 and 44) and were used in all in vitro experiments. […]” for “conditions.”
as §7

PAR1-GRK2 = experiment: GRK-PAR binding in microglial cells by IP and WB: PAR1-GRK2; format: cell-based, murine; settings: thrombin 100 nM alone, 30 seconds, compared to untreated microglial cells
Description: as §4, with “conditions. Freshly solublized Aβ (BioSource, Camarillo, Calif.) peptides were prepared and characterized as previously described (References 30 and 44) and were used in all in vitro experiments. […]” for “conditions.”
as §7

[3] = 5 min pretreatment, N9 cells, FIG. 6B
[4] = within 20 min post-Aβ treatment

For `N[C@@H](CCC(=O)O)C(=O)O` [glutamate], the “TNF-α release induced by the activator alone” value (TNF-α [1]; N9 cells, FIG. 6B) was “significantly stimulated”.

For “sAβ1-40: Freshly solubilized soluble β-amyloid 1-40 peptide (BioSource)”, the “translocation of GRK5 from cell membrane to cytosol” value (GRK5; 50 nM peptide) was “not”.

In the case of “sAβ1-42: Freshly solubilized soluble β-amyloid 1-42 peptide (BioSource), mixture of monomeric and oligomeric Aβ”, the “effect of sAβ pretreatment on LPS-induced TNF-α release” value (TNF-α [1]; [3]) is reported as “not”, the “effect of sAβ pretreatment on glutamate-induced TNF-α release” value (TNF-α [1]; [3]) is reported as “dose-dependently potentiated” and the “effect of sAβ pretreatment on thrombin-induced TNF-α release” value (TNF-α [1]; [3]) is reported as “dose-dependently potentiated”. For the same compound, the “enhancement of TNF-α release when sAβ is given after thrombin or glutamate (post-treatment)” value (TNF-α [1]; sAβ given 10 min after thrombin or glutamate) was “not”, the “change of free [Ca^2+]i” value ([Ca^2+]i; sAβ1-42 500 nM alone) was “slow and moderate increase” and the “time for [Ca^2+]i to return to basal levels” value ([Ca^2+]i; sAβ1-42 500 nM alone) was ≤ 4 min. The “effect of sAβ pretreatment on thrombin-induced TNF-α release” value (TNF-α [2]) was “potentiated”, the “translocation of GRK5 from cell membrane to cytosol” value (GRK5; 50 nM peptide) was “To a lesser extent, similar GRK5 changes were also observed” and the “translocation of GRK5 from cell membrane to cytosol” value (GRK5; 500 nM peptide) was “induced a rapid translocation of GRK5 from cell membrane to cytosol”. For the same compound, the “translocation of GRK5 from membrane to cytosol compartment” value (GRK5; 500 nM, 5 minutes, N9 microglial cells) was “induced a rapid translocation of GRK5 from membrane to cytosol compartment”.

In the case of thrombin, the “increase of PAR4 binding to GRK5” value (PAR4-GRK5) is reported as ~4 fold, the “TNF-α release induced by the activator alone” value (TNF-α [1]; N9 cells, FIG. 6B) is reported as “significantly stimulated” and the “[Ca^2+]i above basal levels after the rapid decrease” value ([Ca^2+]i; thrombin alone (100 nM)) is reported as “approximately 100 nM”. The “change of [Ca^2+]i” value ([Ca^2+]i; thrombin alone (100 nM)) was “steep and sharp increase”, the “duration of the [Ca^2+]i level above basal” value ([Ca^2+]i; thrombin alone (100 nM)) was “at least 4 min” and the “change of [Ca^2+]i” value ([Ca^2+]i; thrombin alone (100 nM), listed as Thrombin) was “sharp increase and rapidly decrease”. For the same compound, the “p44/42 MAPK phosphorylation” value (p44/42 MAPK; 24 h) was “returned to basal levels”, the “p44/42 MAPK phosphorylation” value (p44/42 MAPK; [4]) was “increased phosphorylation” and the “p38 MAPK phosphorylation” value (p38 MAPK; 24 h) was “returned to basal levels”. For the same compound, the “p38 MAPK phosphorylation” value (p38 MAPK; [4]) was “increased phosphorylation”, the “increase of PAR4 binding to GRK2” value (PAR4-GRK2) was ~2 fold and the “increase of PAR1 binding to GRK2” value (PAR1-GRK2) was ~30 fold.
